From US9453051B2, “Cyclosporin derivatives” (priority 2011, dated 2016)

Key:
NFAT = experiment: Cellular NFAT-reporter-gene assay (GloResponse NFAT-RE-luc2P HEK293); format: cell-based; settings: Homo sapiens, HEK293, 16 h, read-out: NFAT-reporter-gene assay IC50
Excerpt: An antigen specific stimulation of the T-cell receptor causes the activation of transcription factors such as e.g. NFAT (nuclear factor of activated T cells). NFAT-activation is essential for the expression of interleukine-2 and therefore, for the proliferation of T-cells as part of the immune response. A stable NFAT-reporter-gene cell line enables the analysis of modulators of the NFAT-pathways and thus, the evaluation of the immunosuppressive effects of compounds.
The stably transfected reporter-gene cell line GloResponse NFAT-RE-luc2P HEK293 (promega Corp. USA) was cultivated in DMEM (10% FCS; 2 mM Glutamin; 200 μg/ml Hygromycin) and seeded on 96-well plates (200.000 cells/well). The compounds to be tested were either added to the cells in a 2-point-determination (5 μM and 10 μM) or an ICH-determination (concentration series 4.1 nM-1 μM). […] Immediately thereafter the cells were stimulated with 5 nM PMA and 2 μM ionomycin and incubated over 16 h (37° C.; cell incubator). This double stimulation simulates a T-cell receptor stimulation and causes a NFAT activation with subsequently expression of the luciferase-reporter-gene. The amount of luciferase was quantitatively determined after 16 h by measurement of the bioluminescence by Bright-Glo Luciferase-Assay-System (Promega Corp., USA). The averaged luciferase values of the vehicle treated (1% DMSO) and with PMA/ionomycin stimulated cells were used as positive control and reference value.

[1] = Determination of cell permeability in PAMPA cell membranes (Parallel Artificial Membrane Permeability Assay); format: in vitro ADME; settings: 500 μM, Hepes buffer pH 7.4, 16 hours, room temperature
Protocol: After an incubation of 16 hours at room temperature in a liquid chamber the optical density of the solution after filtration has been measured in a range of 250 to 500 nm in steps of 10 nm each. The percentage “Flux” has been calculated from the integral of the graph between 250 and 500 nm and standardized on the optical density determined in the parallel reaction without artificial membrane.

in vitro = settings: human, Caco-2, pH 7.4
[2] = target: recombinant human wild type Cyp18 (Cyp18 wt) (Homo sapiens, UniProt P62937); experiment: biochemical
Protocol: The determination was performed on a UV/Vis spectrometer at 10° C. cuvette temperature, whereby the device is operated at 390 nm in kinetic-mode (measurement buffer: 35 mM HEPES/NaOH pH 7.8 (AppliChem A1069)). 0.58 nM recombinant human wild type Cyp18 (Cyp18 wt), 2.33 nM bovine serum albumin (BSA) and 1 mg/ml chymotrypsin (Merck) solved in 35 mM HEPES/NaOH pH 7.8 as well as different concentration of each test substance, where appropriate, were in the cuvette. The reaction was started with a stock solution of Suc-Ala-Ala-Pro-Phe-4-nitroanilide (Bachem, 10 mg/ml DMSO) as substrate so that a final substrate concentration of 32 μM resulted. The extinction-time-curves were evaluated after expiry of the fast phase of the reaction i.e. after approximately 60 seconds according to a rate equation of a first-order reaction.

calcineurin = calcineurin (Homo sapiens, UniProt P62937+P63098+Q08209); experiment: Inhibition of the phosphatase activity of calcineurin (scintillation-proximity-assay, in presence of Cyp18);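 further: calcineurin dephosphorylation of a ³³P-labelled RII phosphopeptide, captured on streptavidin-coated wells and read by scintillation counting, with uninhibited enzyme activity taken as 100%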
Protocol: The measurement was carried out by incubation of 10 μMol of the biotinylated phosphopeptide [sequence]pSer-Val-Ala-Ala-Glu (MW=2192.0) (RH-peptide) marked with ^33P in a sample buffer (40 mM Tris-HCl, pH 7.5, 100 mM NaCl, 6 mM MgCl2, 0.5 mM dithiothreitol, 1 mM. CaCl2, 0.1 mg/ml bovine serum albumin) in presence of 50 nM calmodulin and 1.32 nM calcineurin at 30° C. for 20 min in a 96 well micro titer plate (Costar, Bodenheim, Germany). The total volume of the assay/well was 100 μl. After this reaction time a 90 μl aliquot of the reaction mixture was transferred into a scintillation cavity coated with streptavidin and incubated for 20 min at 22° C. After a washing step the RII phosphopeptide-associated ^33P radioactivity was measured in a MicroBeta Top Counter (Wallac) and the enzyme activity was indicated as average value of three measurements±S.D. The uninhibited dephosphorylation activity has been set on 100%.

recombinant human wild type Cyp18 (Cyp18 wt), sequence (P62937 whole entry): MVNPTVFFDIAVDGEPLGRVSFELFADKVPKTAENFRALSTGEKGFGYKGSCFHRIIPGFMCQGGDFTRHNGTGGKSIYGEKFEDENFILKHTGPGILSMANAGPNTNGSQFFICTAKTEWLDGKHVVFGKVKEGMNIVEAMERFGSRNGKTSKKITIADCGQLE

CC[C@@H]1NC(=O)[C@H]([C@H](O)[C@H](C)Cc2nc3cc(S(=O)(=O)O)ccc3[nH]2)N(C)C(=O)[C@H](C(C)C)N(C)C(=O)[C@H](CC(C)C)N(C)C(=O)[C@H](CC(C)C)N(C)C(=O)[C@@H](C)NC(=O)[C@H](C)NC(=O)[C@H](CC(C)C)N(C)C(=O)[C@H](C(C)C)NC(=O)[C@H](CC(C)C)N(C)C(=O)CN(C)C1=O [Compound 22]
IC50 (NFAT): > 10 µM
Cell permeability in PAMPA-cell membranes [1]: 4.1 % flux
Papp A→B at 2 h, 5 μM (in vitro): 0.9 ×10⁻⁶ cm/s
IC50 [2]: 0.0087 µM
IC50 (calcineurin): > 10 µM

CC[C@@H]1NC(=O)[C@H]([C@H](O)[C@H](C)Cc2nc3cc(C(N)=O)ccc3[nH]2)N(C)C(=O)[C@H](C(C)C)N(C)C(=O)[C@H](CC(C)C)N(C)C(=O)[C@H](CC(C)C)N(C)C(=O)[C@@H](C)NC(=O)[C@H](C)NC(=O)[C@H](CC(C)C)N(C)C(=O)[C@H](C(C)C)NC(=O)[C@H](CC(C)C)N(C)C(=O)CN(C)C1=O [Compound 23]
IC50 (NFAT): > 10 µM
Papp A→B at 2 h, 5 μM (in vitro): 0.3 ×10⁻⁶ cm/s
Papp B→A at 2 h, 5 μM (in vitro): 0.6 ×10⁻⁶ cm/s
IC50 [2]: 0.0038 µM
IC50 (calcineurin): > 10 µM

CC[C@@H]1NC(=O)[C@H]([C@H](O)[C@H](C)Cc2nc3cccc(C(=O)O)c3[nH]2)N(C)C(=O)[C@H](C(C)C)N(C)C(=O)[C@H](CC(C)C)N(C)C(=O)[C@H](CC(C)C)N(C)C(=O)[C@@H](C)NC(=O)[C@H](C)NC(=O)[C@H](CC(C)C)N(C)C(=O)[C@H](C(C)C)NC(=O)[C@H](CC(C)C)N(C)C(=O)CN(C)C1=O [Compound 28]
IC50 (NFAT): > 10 µM
Cell permeability in PAMPA-cell membranes [1]: 3.3 % flux
Papp A→B at 2 h, 5 μM (in vitro): < 0.4 ×10⁻⁶ cm/s
Papp B→A at 2 h, 5 μM (in vitro): 0.3 ×10⁻⁶ cm/s

CC[C@@H]1NC(=O)[C@H]([C@H](O)[C@H](C)Cc2nc3cc(C(=O)O)c(C(=O)O)cc3[nH]2)N(C)C(=O)[C@H](C(C)C)N(C)C(=O)[C@H](CC(C)C)N(C)C(=O)[C@H](CC(C)C)N(C)C(=O)[C@@H](C)NC(=O)[C@H](C)NC(=O)[C@H](CC(C)C)N(C)C(=O)[C@H](C(C)C)NC(=O)[C@H](CC(C)C)N(C)C(=O)CN(C)C1=O [Compound 31]
IC50 (NFAT): > 10 µM
Cell permeability in PAMPA-cell membranes [1]: 0.2 % flux
Papp A→B at 2 h, 5 μM (in vitro): < 0.15 ×10⁻⁶ cm/s
Papp B→A at 2 h, 5 μM (in vitro): < 0.18 ×10⁻⁶ cm/s
IC50 [2]: 0.0399 µM

CC[C@@H]1NC(=O)[C@H]([C@H](O)[C@H](C)Cc2nc3cc(-c4nnn[nH]4)ccc3[nH]2)N(C)C(=O)[C@H](C(C)C)N(C)C(=O)[C@H](CC(C)C)N(C)C(=O)[C@H](CC(C)C)N(C)C(=O)[C@@H](C)NC(=O)[C@H](C)NC(=O)[C@H](CC(C)C)N(C)C(=O)[C@H](C(C)C)NC(=O)[C@H](CC(C)C)N(C)C(=O)CN(C)C1=O [Compound 33]
IC50 (NFAT): > 10 µM
Cell permeability in PAMPA-cell membranes [1]: 0.25 % flux
Papp A→B at 2 h, 5 μM (in vitro): < 0.15 ×10⁻⁶ cm/s
Papp B→A at 2 h, 5 μM (in vitro): < 0.15 ×10⁻⁶ cm/s
IC50 (calcineurin): > 10 µM

CC[C@@H]1NC(=O)[C@H]([C@H](O)[C@H](C)Cc2nc3cc(S(N)(=O)=O)ccc3[nH]2)N(C)C(=O)[C@H](C(C)C)N(C)C(=O)[C@H](CC(C)C)N(C)C(=O)[C@H](CC(C)C)N(C)C(=O)[C@@H](C)NC(=O)[C@H](C)NC(=O)[C@H](CC(C)C)N(C)C(=O)[C@H](C(C)C)NC(=O)[C@H](CC(C)C)N(C)C(=O)CN(C)C1=O [Compound 34]
IC50 (NFAT): > 10 µM
Cell permeability in PAMPA-cell membranes [1]: 19.9 % flux
Papp A→B at 2 h, 5 μM (in vitro): < 0.6 ×10⁻⁶ cm/s
Papp B→A at 2 h, 5 μM (in vitro): 0.87 ×10⁻⁶ cm/s
IC50 [2]: 0.0164 µM
IC50 (calcineurin): 6.4 µM

CC[C@@H]1NC(=O)[C@H]([C@H](O)[C@H](C)Cc2nc3cc(C(=N)N)ccc3[nH]2)N(C)C(=O)[C@H](C(C)C)N(C)C(=O)[C@H](CC(C)C)N(C)C(=O)[C@H](CC(C)C)N(C)C(=O)[C@@H](C)NC(=O)[C@H](C)NC(=O)[C@H](CC(C)C)N(C)C(=O)[C@H](C(C)C)NC(=O)[C@H](CC(C)C)N(C)C(=O)CN(C)C1=O [Compound 35]
IC50 (NFAT): > 10 µM
Cell permeability in PAMPA-cell membranes [1]: 4 % flux
Papp A→B at 2 h, 5 μM (in vitro): < 0.35 ×10⁻⁶ cm/s
Papp B→A at 2 h, 5 μM (in vitro): < 0.46 ×10⁻⁶ cm/s
IC50 [2]: 0.012 µM
IC50 (calcineurin): 4.8 µM

CC[C@@H]1NC(=O)[C@H]([C@H](O)[C@H](C)Cc2nc3cc(C(=O)O)ccc3n2C)N(C)C(=O)[C@H](C(C)C)N(C)C(=O)[C@H](CC(C)C)N(C)C(=O)[C@H](CC(C)C)N(C)C(=O)[C@@H](C)NC(=O)[C@H](C)NC(=O)[C@H](CC(C)C)N(C)C(=O)[C@H](C(C)C)NC(=O)[C@H](CC(C)C)N(C)C(=O)CN(C)C1=O [Compound 36]
IC50 (NFAT): > 10 µM
Cell permeability in PAMPA-cell membranes [1]: 0.7 % flux
Papp A→B at 2 h, 5 μM (in vitro): 0.3 ×10⁻⁶ cm/s
IC50 (calcineurin): > 10 µM

CC[C@@H]1NC(=O)[C@H]([C@H](O)[C@H](C)Cc2nc3ccc(C(=O)O)cc3n2C)N(C)C(=O)[C@H](C(C)C)N(C)C(=O)[C@H](CC(C)C)N(C)C(=O)[C@H](CC(C)C)N(C)C(=O)[C@@H](C)NC(=O)[C@H](C)NC(=O)[C@H](CC(C)C)N(C)C(=O)[C@H](C(C)C)NC(=O)[C@H](CC(C)C)N(C)C(=O)CN(C)C1=O [Compound 37]
IC50 (NFAT): > 10 µM
Cell permeability in PAMPA-cell membranes [1]: 2 % flux
Papp A→B at 2 h, 5 μM (in vitro): 0.1 ×10⁻⁶ cm/s

CC[C@@H]1NC(=O)[C@H]([C@H](O)[C@H](C)Cc2nc3cc(-c4ccc(N)c(N)c4)ccc3[nH]2)N(C)C(=O)[C@H](C(C)C)N(C)C(=O)[C@H](CC(C)C)N(C)C(=O)[C@H](CC(C)C)N(C)C(=O)[C@@H](C)NC(=O)[C@H](C)NC(=O)[C@H](CC(C)C)N(C)C(=O)[C@H](C(C)C)NC(=O)[C@H](CC(C)C)N(C)C(=O)CN(C)C1=O [Compound 39]
IC50 (NFAT): 10 µM
IC50 [2]: 0.0061 µM
IC50 (calcineurin): > 10 µM

CC[C@@H]1NC(=O)[C@H]([C@H](O)[C@H](C)Cc2nc3cc(N)c(N)cc3[nH]2)N(C)C(=O)[C@H](C(C)C)N(C)C(=O)[C@H](CC(C)C)N(C)C(=O)[C@H](CC(C)C)N(C)C(=O)[C@@H](C)NC(=O)[C@H](C)NC(=O)[C@H](CC(C)C)N(C)C(=O)[C@H](C(C)C)NC(=O)[C@H](CC(C)C)N(C)C(=O)CN(C)C1=O [Compound 40]
IC50 (NFAT): > 10 µM
IC50 [2]: 0.0055 µM
IC50 (calcineurin): 8 µM

CC[C@@H]1NC(=O)[C@H]([C@H](O)[C@H](C)Cc2nc3cc(N4CCN(C)CC4)ccc3[nH]2)N(C)C(=O)[C@H](C(C)C)N(C)C(=O)[C@H](CC(C)C)N(C)C(=O)[C@H](CC(C)C)N(C)C(=O)[C@@H](C)NC(=O)[C@H](C)NC(=O)[C@H](CC(C)C)N(C)C(=O)[C@H](C(C)C)NC(=O)[C@H](CC(C)C)N(C)C(=O)CN(C)C1=O [Compound 41]
IC50 (NFAT): > 10 µM
IC50 [2]: 0.003 µM
IC50 (calcineurin): > 10 µM

CC[C@@H]1NC(=O)[C@H]([C@H](O)[C@H](C)Cc2nc3cc(NC(=N)N)ccc3[nH]2)N(C)C(=O)[C@H](C(C)C)N(C)C(=O)[C@H](CC(C)C)N(C)C(=O)[C@H](CC(C)C)N(C)C(=O)[C@@H](C)NC(=O)[C@H](C)NC(=O)[C@H](CC(C)C)N(C)C(=O)[C@H](C(C)C)NC(=O)[C@H](CC(C)C)N(C)C(=O)CN(C)C1=O [Compound 46]
IC50 (NFAT): > 10 µM
Cell permeability in PAMPA-cell membranes [1]: 13.5 % flux
Papp A→B at 2 h, 5 μM (in vitro): 0.4 ×10⁻⁶ cm/s
IC50 [2]: 0.0131 µM
IC50 (calcineurin): 6.63 µM

CC[C@@H]1NC(=O)[C@H]([C@H](O)[C@H](C)Cc2nc3cc(NS(=O)(=O)C(F)(F)F)ccc3[nH]2)N(C)C(=O)[C@H](C(C)C)N(C)C(=O)[C@H](CC(C)C)N(C)C(=O)[C@H](CC(C)C)N(C)C(=O)[C@@H](C)NC(=O)[C@H](C)NC(=O)[C@H](CC(C)C)N(C)C(=O)[C@H](C(C)C)NC(=O)[C@H](CC(C)C)N(C)C(=O)CN(C)C1=O [Compound 47]
IC50 (NFAT): > 10 µM
IC50 [2]: 0.0132 µM
IC50 (calcineurin): > 10 µM
